ChEMBL document CHEMBL1150622, “Three new modified limonoids from Khaya senegalensis” (J Nat Prod, 2002)
Activity calls are given as the source filed them. No cut-off for these calls is given here.

Experiments:
[1] = test system: Human immunodeficiency virus 1; test: Antiviral activity against HIV1 in human MT4 cells assessed as inhibition of virus-induced cytopathic effect at 100 ug/mL; assay type: functional, organism-based
[2] = test system: MT4; test: Cytotoxicity against human MT4 cells at 100 ug/mL; assay type: cell-based

| Structure (SMILES) | Activity [1] | Activity [2] |
| --- | --- | --- |
| COC(=O)[C@]1(C)[C@@H]([C@@]2(C)C=CC(=O)C(C)(C)[C@@H]2CO[C@@H]2O[C@H](CO)[C@@H](O)[C@H](O)[C@H]2O)CC[C@@]2(C)[C@H](c3ccoc3)OC(=O)[C@H]3O[C@]321 [KHAYANOSIDE] | inactive | Not Active |
| COC(=O)C[C@H]1[C@]2(C)C[C@]3(O)[C@H]4[C@@H](O[C@]56CC(=O)O[C@@H](c7ccoc7)[C@]5(C)CC[C@H]([C@]13C)[C@]46O)[C@H]2O [khayanolide D] | inactive | Not Active |
| COC(=O)[C@H](O)[C@@H]1[C@@]2(C)[C@H]3CC[C@@]4(C)[C@H](c5ccoc5)OC(=O)C[C@@]45O[C@H]4C(=O)[C@@]1(C)C[C@]2(OC(C)=O)[C@@H]4[C@@]35O [khayanolide E] | inactive | Not Active |
